Assay results taken from US7105663B2, “Derivatives of pyrimido[6,1-a]isoquinolin-4-one” (Rhinopharma Limited, priority 1999, dated 2006).

Tests used:
[1] = test system: LPS induced TNF-α release from human monocytes; assay: LPS induced TNF-α release from human monocytes; format: cell-based; conditions: Monocyte
[2] = test system: guinea-pig isolated trachea; assay: Electrical-induced contraction of guinea-pig isolated trachea (superfused tracheal rings, electrical field stimulation); conditions: 10 μM
Procedure: Superfusion of guinea-pig tracheal rings was performed according to a previously described method (Coleman et al. 1996; Pulmonary Pharmacology, 9, 107–117). Briefly, guinea-pig tracheal preparations were cut into rings then opened by sectioning the ring opposite the smooth muscle and suspended between two platinum electrodes under 1 g tension. The tissues were superfased at a rate of 3.25 ml/min with Krebs-Henseleit solution at 37° C. containing the cyclooxygenase inhibitor, indomethacin (5 μM) and bubbled with 95% O2 and 5% CO2. Tracheal preparations were allowed to equilibrate for 40 min before commencement of electrical stimulation delivered as a 10 s train of square wave pulses at 3 Hz, 0.1 ms duration and 20V (approx. 400 mAmps) generated every 100 sec by means of physiological square wave-stimulator.
The compound of Example 1 was dissolved in DMSO containing Tween 80 (10%) and distilled water (0.01 M), which were then added to the organ bath to give a final concentration of 10 μM. The other compounds were prepared in DMSO and diluted in Krebs-Henseleit solution which yielded a final superfusion concentration of 0.05% DMSO, and superfused at a rate of 0.3 ml/min; contractile responses to electrical field stimulation was recorded on a Macintosh computer using MacLab software.

[3] = test system: human mononuclear cells stimulated by PHA; assay: Proliferation of human mononuclear cells stimulated by PHA ([3H]-thymidine); format: cell-based
Procedure: Normal healthy volunteers underwent phlebotomy and 25 ml of blood was collected. Mononuclear cells were separated and purified according to the method of Banner et al (Banner et al Br. J. Pharmacol. 116 3169–3174 (1995)). Human peripheral mononuclear cells (100,000 per well) were stimulated for 24 h with phytohaemagglutinin (PHA, 2 μ/ml) in the absence or presence of the compound of Example 1 (0.001–100 μM) at 37° C. in a 95% air, 5% CO2 atmosphere. Twenty four hours later, [3H]-thymidine (0.1 μCi) was added to each well and the cells were incubated for a further 24 h period. Cells were then harvested onto glass fibre filters using a cell harvester (ICN Flow, Buckinghamshire) and counted in a scintillation counter.

PDE3 (human platelet) = molecular target: T1, PDE3 (human platelet) (Homo sapiens, UniProt Q14432); assay: Inhibition of phosphodiesterase (PDE) type 3 isoenzyme; format: biochemical
T1 construct: (human platelet); from tissue; host or cells: human platelets
T1 sequence (Q14432 whole entry): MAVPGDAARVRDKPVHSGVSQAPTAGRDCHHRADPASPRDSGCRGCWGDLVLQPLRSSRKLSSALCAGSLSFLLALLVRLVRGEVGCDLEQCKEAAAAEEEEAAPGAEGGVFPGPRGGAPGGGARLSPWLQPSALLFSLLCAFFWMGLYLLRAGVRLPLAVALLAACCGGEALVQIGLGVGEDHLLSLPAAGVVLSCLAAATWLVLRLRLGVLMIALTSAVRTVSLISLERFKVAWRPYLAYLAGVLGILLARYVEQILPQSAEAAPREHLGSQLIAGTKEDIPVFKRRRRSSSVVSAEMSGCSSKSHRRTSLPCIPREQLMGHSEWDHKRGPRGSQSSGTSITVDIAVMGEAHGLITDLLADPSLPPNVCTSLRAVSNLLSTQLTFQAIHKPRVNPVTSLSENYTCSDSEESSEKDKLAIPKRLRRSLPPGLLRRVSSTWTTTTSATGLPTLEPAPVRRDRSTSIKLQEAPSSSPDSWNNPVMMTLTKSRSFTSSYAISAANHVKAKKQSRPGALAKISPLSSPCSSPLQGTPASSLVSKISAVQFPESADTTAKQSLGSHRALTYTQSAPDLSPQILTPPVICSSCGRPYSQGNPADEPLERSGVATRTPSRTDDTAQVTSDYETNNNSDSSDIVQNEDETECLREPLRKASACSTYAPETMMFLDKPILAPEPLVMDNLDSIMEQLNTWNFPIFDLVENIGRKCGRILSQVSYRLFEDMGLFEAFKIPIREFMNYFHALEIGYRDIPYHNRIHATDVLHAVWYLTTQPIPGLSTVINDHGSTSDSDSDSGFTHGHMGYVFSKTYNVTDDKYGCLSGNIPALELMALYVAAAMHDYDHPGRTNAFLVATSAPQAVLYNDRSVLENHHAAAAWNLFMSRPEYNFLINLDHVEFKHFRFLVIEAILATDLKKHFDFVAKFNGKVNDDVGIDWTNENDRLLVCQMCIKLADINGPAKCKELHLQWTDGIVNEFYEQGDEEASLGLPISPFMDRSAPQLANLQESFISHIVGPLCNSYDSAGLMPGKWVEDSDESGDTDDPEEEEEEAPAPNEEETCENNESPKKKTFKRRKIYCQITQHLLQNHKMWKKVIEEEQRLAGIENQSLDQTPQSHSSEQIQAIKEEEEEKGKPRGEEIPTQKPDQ

PDE4 (human neutrophil) = assay: Inhibition of phosphodiesterase (PDE) type 4 isoenzyme; format: biochemical
[4] = test system: histamine induced bronchospasm; assay: Histamine induced bronchospasm in guinea-pigs after dry powder exposure; format: in vivo, guinea-pig; conditions: dry powder 2.5 and 25% in lactose, over a 5.5 hour period
Procedure: 1. The compound of Example 1, 9,10-Dimethoxy-2-(2,4,6-trimethylphenylimino)-3-(N-carbamoyl-2-aminoethyl)-3,4,6,7-tetrahydro-2H-pyrimido[6,1-a]isoquinolin-4-one, was tested in a model of histamine induced bronchospasm. Conscious guinea-pigs were exposed to dry powder (micronised) compound. The drug was blended with lactose so that the final concentration was 0.25, 2.5 and 25%. At various times after exposure to drug the animals were anaesthetised and challenged with varying doses of histamine. Total airway resistance and mean arterial blood pressure were recorded.

[5] = Intravenous administration to urethane anaesthetised guinea-pigs, mean arterial blood pressure; format: in vivo, guinea-pig; conditions: intravenous 1 to 100 μg/kg, evidence that the compound had come out of solution
Procedure: 2. […] The compound was dissolved in DMSO then diluted with saline (there was evidence that the compound had come out of solution).

[6] = test system: recruitment of eosinophils to the lungs; assay: Antigen induced eosinophilia in the ovalbumin sensitised guinea-pig; format: in vivo
Procedure: 3. […] Further experiments were carried out to characterise the duration of action in this model.

## CN/C(=N\c1ccc(C2=NNC(=O)CC2C)cc1)NC#N (stereo not shown) [Siguazodan]
[1]
  IC50: > 100000 nM

## COc1cc2c(cc1OC)-c1c/c(=N\c3c(C(C)C)cccc3C(C)C)n(CCNC(N)=O)c(=O)n1CC2 [Example 11]
[2]
  effect on contractile responses (electrical-induced contraction of guinea-pig isolated trachea): inhibit the contractile responses with a long duration of action

## CN/C(=N\C#N)NCCn1c(=O)n2c(c/c1=N\c1c(C)cc(C)cc1C)-c1cc(OC)c(OC)cc1CC2 [Example 13, 3-[N-(N′-Cyano-N″-methyl)-2-guanidinoethyl]-9,10-dimethoxy-2-(2,4,6-trimethyl-phenylimino)-3,4,6,7-tetrahydro-2H-pyrimido[6,1-a]isoquinolin-4-one]
[2]
  effect on contractile responses (electrical-induced contraction of guinea-pig isolated trachea): inhibit the contractile responses with a long duration of action

## COc1cc2c(cc1OC)-c1c/c(=N\c3ccccc3C)n(CCNC(N)=O)c(=O)n1CC2 [Example 10, 3-(N-Carbamoyl-2-aminoethyl)-9,10-dimethoxy-2-(2-methylphenylimino)-3,4,6,7-tetrahydro-2H-pyrimido[6,1-a]isoquinolin-4-one]
[2]
  effect on contractile responses (electrical-induced contraction of guinea-pig isolated trachea): inhibit the contractile responses with a long duration of action

## COc1cc2c(cc1OC)-c1c/c(=N\c3c(C)cc(C)cc3C)n(CCN/C(N)=N/[N+](=O)[O-])c(=O)n1CC2 [Example 8, 9,10-Dimethoxy-3-[N-(N′-nitro)-2-guanidinoethyl]-2-(2,4,6-trimethylphenylimino)-3,4,6,7-tetrahydro-2H-pyrimido[6,1-a]isoquinolin-4-one]
[2]
  effect on contractile responses (electrical-induced contraction of guinea-pig isolated trachea): inhibit the contractile responses with a long duration of action

## COc1cc2c(cc1OC)-c1c/c(=N\c3c(C)cc(C)cc3C)n(CCNC(=O)NC3CCCCC3)c(=O)n1CC2 [Example 9]
[2]
  effect on contractile responses (electrical-induced contraction of guinea-pig isolated trachea): inhibit the contractile responses with a long duration of action

## COc1cc2c(cc1OC)-c1c/c(=N\c3c(C)cc(C)cc3C)n(CCNC(N)=O)c(=O)n1CC2 [Example 1, 9,10-Dimethoxy-2-(2,4,6-trimethylphenylimino)3-(N-carbamoyl-2-aminoethyl)-3,4,6,7-tetrahydro-2H-pyrimido[6,1-a]isoquinolin-4-one]
[2]
  effect on contractile responses (electrical-induced contraction of guinea-pig isolated trachea): inhibit the contractile responses with a long duration of action
[3]; 0.001–100 μM
  proliferation of human mononuclear cells stimulated by PHA: significantly inhibited
[3]; Homo sapiens, 95% confidence limits in brackets, n=6, read-out: IC50 against proliferation of human mononuclear cells stimulated with PHA
  IC50: 460 nM
PDE3 (human platelet)
  IC50: 0.43 nM
PDE4 (human neutrophil)
  IC50: 1480 nM
[1]; n = 6
  IC50: 7.5 nM
[4]; conscious guinea-pigs
  protection against histamine induced bronchospasm: significant protection
[4]; guinea-pigs
  mean blood pressure: reduced mean blood pressure
[5]
  mean arterial blood pressure: dose dependant reduction
[6]; 10 mg/kg orally 1 hour prior to antigen challenge
  recruitment of eosinophils to the lungs following antigen challenge: significantly inhibited
[6]; dry powder (25%) 1.5 hours prior to antigen challenge, measured 24 hours after challenge
  recruitment of eosinophils to the lungs following antigen challenge: significantly inhibited
[6]; dry powder (25%) 5.5 hours before antigen challenge
  recruitment of eosinophils to the lungs following antigen challenge: failed to significantly inhibit

## COc1ccc([C@H](Cc2ccncc2)c2ccccc2)cc1OC1CCCC1 [CDP 840]
[1]; n = 6
  IC50: 92 nM
